Several values for one entry are separate records, joined by “and”; a condition that tells them apart may be missing. Equal values may be shown once.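 All cell lines were grown in 96-well plates and treated with compound for 48 hours. Abbreviation: GI50, concentration required for 50% inhibition of growth. The concentration for full growth arrest is given as TGI.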

The first experiment has as its system SN12C renal. In words: inhibition of tumour cell growth, NCI panel, 48 h.
Turning to `CCc1ccc(Nc2cc(C)c3ccc(O)cc3n2)cc1`, the GI50 was 6.24 µM and the TGI turned out to be 23.5 µM.
Take `[O]=[V]([OH])([OH])[OH]`: the GI50 is above 100 µM and the TGI was above 100 µM.
Regarding `CNCc1ccc(-c2cc(-c3nc(-c4ccc(S(=O)(=O)C(C)C)cc4)cnc3N)on2)cc1`, the GI50 is 8.58 µM and the TGI amounted to 33.4 µM.
For `COc1ccc(Nc2cnc3cc(N)cc(N)c3n2)cc1`, the GI50 is 15.6 µM and the TGI was 37 µM.
As to `COc1cc(/C=C/c2cc(/C=C/c3ccc(O)c(OC)c3)n(C(=O)c3ccccc3Br)n2)ccc1O`, the GI50 was 2.22 µM and the TGI is above 100 µM.
With `Cc1cc(Cl)nc(N(CCNc2ccnc3cc(Cl)ccc23)Cc2ccco2)n1`, the GI50 was 1.98 µM and the TGI is 3.95 µM.
For `S=C1SCN(Cc2ccccc2)CN1Cc1ccco1` the same measures were 4.06 µM and 15.3 µM.
On to `COc1ccccc1CNCCN1C(=O)c2ccc3c4c(ccc(c24)C1=O)C(=O)N(CCNCc1ccccc1OC)C3=O`, for which the GI50 is 0.248 µM and the TGI was 0.701 µM.
`CCCCCCCCCCCC[C@@H](O)[C@H]1CC[C@H]([C@H](O)CC[C@H](O)[C@@H]2CC[C@@H](CCCCCCCC3=C[C@H](C)OC3=O)O2)O1`: the GI50 was above 50 µM and the TGI was above 50 µM.
In the case of `O=C(c1cccs1)c1c(C(F)(F)F)n([O-])c2cc(Cl)c(Cl)cc2[n+]1=O`, the GI50 was 1.31 µM and the TGI worked out at 2.83 µM.
For `CSc1nc2nc(-c3ccccc3)c(C)c-2c2n1C(C)C(=O)N2` (centres undefined), the GI50 was 52.6 µM and the TGI was above 100 µM.
Regarding `C=CCN(CC=C)C(=O)c1cc(C)nc2c1c(=O)n(-c1ccccc1)c(=O)n2CCCN1CCN(c2ccccc2OC)CC1`, the GI50 was above 50 µM and the TGI is above 50 µM.
For the compound `COc1cc(-c2nccc3[nH]c(-c4ccc5cc[nH]c5c4)nc23)cc(OC)c1OC`, the GI50 is below 0.01 µM and the TGI came to 9.93 µM.
`COc1ccccc1Oc1nccc(-c2c(-c3ccc(F)cc3)ncn2C2CCNCC2)n1`: the GI50 is above 25 µM and the TGI was above 25 µM.
For `Cc1ccc(S(=O)(=O)NCCCCC(N)C(=O)O)cc1` (centres undefined), the TGI is above 100 µM.
As for `O=C(O)CN(CCN(CC(=O)O)CC(=O)O)CC(=O)O.[Mn+2]`, the GI50 is above 100 µM and the TGI was above 100 µM.
For the compound `Nc1nc(=S)c2ncn(C3OC(COP(=O)(O)O)C(O)C3O)c2[nH]1` (centres undefined), the GI50 is 3.66 µM and the TGI is above 100 µM.
For the compound `CC(=O)O[C@H]1CC2C(C3CC[C@H](C(C)CCC(=O)O)[C@]31C)[C@H](OC(C)=O)C[C@@H]1CC3(CC[C@]21C)OOC1(CCC(C)CC1)OO3` (some centres undefined), the TGI is 18.3 µM and 9.27 µM.
With `O=C(COc1ccc(/C=C2\Oc3ccccc3C2=O)cc1)Nc1nc2ccccc2s1`, the GI50 was 10.5 µM and the TGI was above 100 µM.
Regarding `CCCCCC/C=C\CCCCCCCCC(=O)c1cccc(OC)c1OC`, the TGI was above 100 µM.

Another experiment deals with PC-3 prostate. In words: inhibition of tumour cell growth, NCI panel, 48 h.
With `CCc1ccc(Nc2cc(C)c3ccc(O)cc3n2)cc1`, the GI50 was 4.79 µM and the TGI worked out at 18.5 µM.
Turning to `[O]=[V]([OH])([OH])[OH]`, the GI50 is above 100 µM and the TGI is above 100 µM.
For the compound `CNCc1ccc(-c2cc(-c3nc(-c4ccc(S(=O)(=O)C(C)C)cc4)cnc3N)on2)cc1`, the GI50 was 1.97 µM and the TGI amounted to 8.32 µM.
As for `COc1ccc(Nc2cnc3cc(N)cc(N)c3n2)cc1`, the GI50 is 14.7 µM and the TGI is 27.9 µM.
Consider `COc1cc(/C=C/c2cc(/C=C/c3ccc(O)c(OC)c3)n(C(=O)c3ccccc3Br)n2)ccc1O`, for which the GI50 was 3.02 µM and the TGI turned out to be 66.9 µM.
On to `Cc1cc(Cl)nc(N(CCNc2ccnc3cc(Cl)ccc23)Cc2ccco2)n1`, for which the GI50 is 2.03 µM and the TGI came to 5.49 µM.
Regarding `S=C1SCN(Cc2ccccc2)CN1Cc1ccco1`, the GI50 is 5.75 µM and the TGI was found to be 61.6 µM.
With `COc1ccccc1CNCCN1C(=O)c2ccc3c4c(ccc(c24)C1=O)C(=O)N(CCNCc1ccccc1OC)C3=O`, the GI50 was 0.317 µM and the TGI came to 0.963 µM.
In the case of `CCCCCCCCCCCC[C@@H](O)[C@H]1CC[C@H]([C@H](O)CC[C@H](O)[C@@H]2CC[C@@H](CCCCCCCC3=C[C@H](C)OC3=O)O2)O1`, the GI50 is 3.3 µM and the TGI is above 50 µM.
`O=C(c1cccs1)c1c(C(F)(F)F)n([O-])c2cc(Cl)c(Cl)cc2[n+]1=O`: the GI50 was 1.37 µM and the TGI came out at 2.81 µM.
Taken in the same sequence, the figures for `CSc1nc2nc(-c3ccccc3)c(C)c-2c2n1C(C)C(=O)N2` (centres undefined) were 31.3 µM and above 100 µM.
Turning to `C=CCN(CC=C)C(=O)c1cc(C)nc2c1c(=O)n(-c1ccccc1)c(=O)n2CCCN1CCN(c2ccccc2OC)CC1`, the GI50 was above 50 µM and the TGI is above 50 µM.
Regarding `COc1cc(-c2nccc3[nH]c(-c4ccc5cc[nH]c5c4)nc23)cc(OC)c1OC`, the GI50 was below 0.01 µM and the TGI amounted to 4.74 µM.
Taken in the same sequence, the figures for `COc1ccccc1Oc1nccc(-c2c(-c3ccc(F)cc3)ncn2C2CCNCC2)n1` were above 20.9 µM and above 25 µM.
`Cc1ccc(S(=O)(=O)NCCCCC(N)C(=O)O)cc1` (centres undefined): the TGI is above 100 µM.
`O=C(O)CN(CCN(CC(=O)O)CC(=O)O)CC(=O)O.[Mn+2]`: the GI50 was above 100 µM and the TGI was above 100 µM.
`Nc1nc(=S)c2ncn(C3OC(COP(=O)(O)O)C(O)C3O)c2[nH]1` (centres undefined): the GI50 is 3.44 µM and the TGI was above 100 µM.
As to `CC(=O)O[C@H]1CC2C(C3CC[C@H](C(C)CCC(=O)O)[C@]31C)[C@H](OC(C)=O)C[C@@H]1CC3(CC[C@]21C)OOC1(CCC(C)CC1)OO3` (some centres undefined), the TGI was 17.2 µM and 14.2 µM.
Regarding `O=C(COc1ccc(/C=C2\Oc3ccccc3C2=O)cc1)Nc1nc2ccccc2s1`, the GI50 is 2.27 µM and the TGI was above 70.6 µM.
Consider `CCCCCC/C=C\CCCCCCCCC(=O)c1cccc(OC)c1OC`, for which the TGI is above 100 µM.

The subject of the next experiment is LOX IMVI melanoma. In words: inhibition of tumour cell growth, NCI panel, 48 h.
Consider `CCc1ccc(Nc2cc(C)c3ccc(O)cc3n2)cc1`, for which the GI50 was 5.03 µM and the TGI came to 18.5 µM.
Taken in the same sequence, the figures for `[O]=[V]([OH])([OH])[OH]` were above 100 µM and above 100 µM.
On to `COc1ccc(Nc2cnc3cc(N)cc(N)c3n2)cc1`, for which the GI50 was 18.8 µM and the TGI turned out to be 40.5 µM.
Take `Cc1cc(Cl)nc(N(CCNc2ccnc3cc(Cl)ccc23)Cc2ccco2)n1`: the GI50 is 1.72 µM and the TGI came to 3.2 µM.
Consider `S=C1SCN(Cc2ccccc2)CN1Cc1ccco1`, for which the GI50 was 1.88 µM and the TGI was 10.2 µM.
In the case of `COc1ccccc1CNCCN1C(=O)c2ccc3c4c(ccc(c24)C1=O)C(=O)N(CCNCc1ccccc1OC)C3=O`, the GI50 is 0.168 µM and the TGI was 0.338 µM.
Take `CCCCCCCCCCCC[C@@H](O)[C@H]1CC[C@H]([C@H](O)CC[C@H](O)[C@@H]2CC[C@@H](CCCCCCCC3=C[C@H](C)OC3=O)O2)O1`: the GI50 was 1.13 µM.
`O=C(c1cccs1)c1c(C(F)(F)F)n([O-])c2cc(Cl)c(Cl)cc2[n+]1=O`: the GI50 was 0.0703 µM and the TGI was determined as 0.493 µM.
With `CSc1nc2nc(-c3ccccc3)c(C)c-2c2n1C(C)C(=O)N2` (centres undefined), the GI50 was 46.7 µM and the TGI is above 100 µM.
Turning to `C=CCN(CC=C)C(=O)c1cc(C)nc2c1c(=O)n(-c1ccccc1)c(=O)n2CCCN1CCN(c2ccccc2OC)CC1`, the GI50 is above 50 µM and the TGI is above 50 µM.
`COc1cc(-c2nccc3[nH]c(-c4ccc5cc[nH]c5c4)nc23)cc(OC)c1OC`: the GI50 was below 0.01 µM and the TGI is 1.5 µM.
Regarding `COc1ccccc1Oc1nccc(-c2c(-c3ccc(F)cc3)ncn2C2CCNCC2)n1`, the GI50 was 17.6 µM and the TGI was above 25 µM.
For the compound `COc1cc(C(=O)/C=C/c2cccc(Nc3ccnc4cc(Cl)ccc34)c2)cc(OC)c1OC`, the GI50 is 0.373 µM and the TGI was determined as 1.46 µM.
On to `O=C(O)CN(CCN(CC(=O)O)CC(=O)O)CC(=O)O.[Mn+2]`, for which the GI50 is above 100 µM and the TGI is above 100 µM.
Take `Nc1nc(=S)c2ncn(C3OC(COP(=O)(O)O)C(O)C3O)c2[nH]1` (centres undefined): the GI50 is 0.322 µM and the TGI was found to be 14.2 µM.
With `CCCCCC/C=C\CCCCCCCCC(=O)c1cccc(OC)c1OC`, the TGI came out at 32.9 µM.

A further experiment concerns HOP-92 NSCLC. In words: inhibition of tumour cell growth, NCI panel, 48 h.
For `CCc1ccc(Nc2cc(C)c3ccc(O)cc3n2)cc1`, the GI50 is 2.81 µM and the TGI turned out to be 10.8 µM.
For the compound `CNCc1ccc(-c2cc(-c3nc(-c4ccc(S(=O)(=O)C(C)C)cc4)cnc3N)on2)cc1`, the GI50 is 13.3 µM and the TGI is 30.6 µM.
Turning to `COc1cc(/C=C/c2cc(/C=C/c3ccc(O)c(OC)c3)n(C(=O)c3ccccc3Br)n2)ccc1O`, the GI50 was 3.82 µM and the TGI is 9.65 µM.
For `Cc1cc(Cl)nc(N(CCNc2ccnc3cc(Cl)ccc23)Cc2ccco2)n1`, the GI50 was 1.2 µM and the TGI was 3.55 µM.
In the case of `S=C1SCN(Cc2ccccc2)CN1Cc1ccco1`, the GI50 is 2.4 µM and the TGI was 10.9 µM.
Taken in the same sequence, the figures for `COc1ccccc1CNCCN1C(=O)c2ccc3c4c(ccc(c24)C1=O)C(=O)N(CCNCc1ccccc1OC)C3=O` were 1.71 µM and 4.38 µM.
Take `CCCCCCCCCCCC[C@@H](O)[C@H]1CC[C@H]([C@H](O)CC[C@H](O)[C@@H]2CC[C@@H](CCCCCCCC3=C[C@H](C)OC3=O)O2)O1`: the GI50 was 3.08 µM and the TGI was above 50 µM.
For `O=C(c1cccs1)c1c(C(F)(F)F)n([O-])c2cc(Cl)c(Cl)cc2[n+]1=O` the same measures were 1.41 µM and 2.85 µM.
For `CSc1nc2nc(-c3ccccc3)c(C)c-2c2n1C(C)C(=O)N2` (centres undefined) the same measures were 40.8 µM and above 100 µM.
On to `C=CCN(CC=C)C(=O)c1cc(C)nc2c1c(=O)n(-c1ccccc1)c(=O)n2CCCN1CCN(c2ccccc2OC)CC1`, for which the GI50 is 4.57 µM and the TGI is above 50 µM.
Taken in the same sequence, the figures for `COc1cc(-c2nccc3[nH]c(-c4ccc5cc[nH]c5c4)nc23)cc(OC)c1OC` were 0.306 µM and 4.98 µM.
As to `COc1cc(C(=O)/C=C/c2cccc(Nc3ccnc4cc(Cl)ccc34)c2)cc(OC)c1OC`, the GI50 is 1.47 µM and the TGI is 5.84 µM.
On to `Cc1ccc(S(=O)(=O)NCCCCC(N)C(=O)O)cc1` (centres undefined), for which the TGI is above 100 µM.
For `CC(=O)O[C@H]1CC2C(C3CC[C@H](C(C)CCC(=O)O)[C@]31C)[C@H](OC(C)=O)C[C@@H]1CC3(CC[C@]21C)OOC1(CCC(C)CC1)OO3` (some centres undefined), the GI50 was 10.1 µM and 2.34 µM; the TGI is 23.2 µM and 5.95 µM.

Another experiment relates to IGROV1 ovarian. Nature of the experiment: inhibition of tumour cell growth, NCI panel, 48 h.
Take `CCc1ccc(Nc2cc(C)c3ccc(O)cc3n2)cc1`: the GI50 was 6.14 µM and the TGI was found to be 20.8 µM.
Take `[O]=[V]([OH])([OH])[OH]`: the GI50 is above 100 µM and the TGI was above 100 µM.
For the compound `CNCc1ccc(-c2cc(-c3nc(-c4ccc(S(=O)(=O)C(C)C)cc4)cnc3N)on2)cc1`, the GI50 is 1.2 µM and the TGI is 10.5 µM.
As for `COc1ccc(Nc2cnc3cc(N)cc(N)c3n2)cc1`, the GI50 was 17.6 µM and the TGI is 37.7 µM.

For the origin of these results see PubChem BioAssay (NCI).
